# Measurements published in patent publication US12577217B2, “15-PGDH inhibitor” (KYORIN Pharmaceutical Co., Ltd., priority 2019, dated 2026).
# Molecular target: T1, recombinant human 15-PGDH (Homo sapiens, UniProt P15428)
# T1 construct: purchased R&D Systems
# T1 sequence (P15428 1-266): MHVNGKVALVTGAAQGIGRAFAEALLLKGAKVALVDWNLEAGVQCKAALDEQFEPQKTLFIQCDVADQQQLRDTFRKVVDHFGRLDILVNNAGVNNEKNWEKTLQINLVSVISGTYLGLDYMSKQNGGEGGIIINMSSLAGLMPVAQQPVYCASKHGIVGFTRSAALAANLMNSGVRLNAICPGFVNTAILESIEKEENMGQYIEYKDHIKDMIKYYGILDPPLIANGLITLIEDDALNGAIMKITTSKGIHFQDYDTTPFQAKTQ
# Assay: 15-PGDH enzyme inhibition test
# Type: biochemical
# Conditions: 4 nM recombinant human 15-PGDH, 30 μM PGE2, 1 mM NAD+, 60 minutes after starting the reaction; read-out: IC50 Value
# How it was run: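 4 nM recombinant human enzyme pre-incubated with compound 12 min at room temperature in 50 mM Tris-HCl pH 8.0 with 0.01% Tween 20 and 0.01% bovine gamma globulin. Reaction started with 30 μM PGE2 and 1 mM NAD+, read after 60 min by fluorescence (ex 340/em 440 nm). IC50 from concentration-response curve.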
row,Structure (SMILES),IC50 [nM]
1,"CC(C)(O)Cn1nc2cc(N3CCOc4cc(C(=O)N5CCCCC5)cnc43)ccn2c1=O [Example 15-1, 2-(2-Hydroxy-2-methylpropyl)-7-(7-(piperidine-1-carbonyl)-2,3-dihydro-4H-pyrido[3,2-b][1,4]oxazin-4-yl)-[1,2,4]triazolo[4,3-a]pyridin-3(2H)-one]",< 10
2,COC(=O)c1ccccc1N1CCOc2cc(C(=O)N3CCCCC3)ccc21 [Example 1-137],> 100
3,CCn1nc2cc(N3CCOc4cc(C(=O)N5CCCCC5)cnc43)ccn2c1=O [Example 8-15],< 10
4,C[C@@H]1COc2cc(C(=O)N3CCCCC3)ccc2N(c2ccn3c(=O)n(C)nc3c2)C1 [Example 1-96],< 10
5,O=C(c1cnc2c(c1)CCCN2c1cc2c(cn1)C(=O)N(CC1COC1)C2)N1CCC(F)(F)CC1 [Example 1-186],10 to 100
6,CN(CCCO)C(=O)c1cnc2c(c1)OCCN2c1ccn2c(=O)n(C)nc2c1 [Example 8-175],10 to 100
7,CNC(=O)c1ccc(N2CCOc3cc(C(=O)N4CCCCC4)cnc32)cc1F [Example 6-5],< 10
8,CN1Cc2cc(N3CCOc4cc(C(=O)N5CCCC5)cnc43)ccc2C1=O [Example 8-185],< 10
9,O=C1NCc2cc(N3CCCc4cc(C(=O)N5CCCCC5)cnc43)ccc21 [Example 14-4],< 10
10,CCn1nc2cc(N3CCCc4cc(C(=O)N5CCC[C@H](F)C5)cnc43)ccn2c1=O [Example 8-163],< 10
11,CCn1oc2cc(N3CCOc4cc(C(=O)N5CCCCC5)cnc43)ccc2c1=O [Example 8-213],< 10
12,Cn1nc2cc(N3CCOc4cc(C(=O)N5Cc6ccccc6C5)cnc43)ccn2c1=O [Example 8-103],< 10
13,Cn1nc2cc(N3CCOc4cc(C(=O)N5CCCCCC5)cnc43)ccn2c1=O [Example 8-102],< 10
14,CCOCCN1Cc2cc(N3CCCc4cc(C(=O)N5CCC(F)(F)CC5)cnc43)ccc2C1=O [Example 1-83],< 10
15,CN1Cc2cc(N3CCOc4cc(C(=O)N5CCC(F)(F)CC5)ccc43)ccc2C1=O [Example 1-149],< 10
16,COCCN1Cc2cc(N3CCOc4cc(C(=O)N5CCC(F)(F)CC5)cnc43)ncc2C1=O [Example 1-266],10 to 100
17,CCN1Cc2cc(N3CCCc4cc(C(=O)N5CCCCC5)cnc43)ccc2C1=O [Example 1-169],< 10
18,CN1Cc2cc(N3CCCc4cc(C(=O)N5CCC(F)(F)CC5)cnc43)ncc2C1=O [Example 1-85],10 to 100
19,Cn1nc2cc(N3CCOc4cc(C(=O)N5CC(F)(F)C5)cnc43)ccn2c1=O [Example 8-30],< 10
20,CNC(=O)c1ccc(N2CCCc3cc(C(=O)N4CCCCC4)cnc32)cc1 [Example 1-204],< 10
21,Cn1nc2cc(N3CCOc4cc(C(=O)N5CC(C)(F)C5)cnc43)ccn2c1=O [Example 8-50],< 10
22,CNC(=O)c1ccc(N2CCOc3cc(C(=O)N4CCCCC4)cnc32)cc1 [Example 6-18],< 10
23,CCOCCn1nc2cc(N3CCCc4cc(C(=O)N5CCCCC5)cnc43)ccn2c1=O [Example 1-70],< 10
24,CCOCn1nc2cc(N3CCCc4cc(C(=O)N5CCC[C@H](CF)C5)cnc43)ccn2c1=O [Example 1-115],< 10

row,Structure (SMILES),IC50 [nM]
1,COCCN1CCN(c2ccn3c(=O)n(C)nc3c2)c2ncc(C(=O)N3CCCCC3)cc21 [Example 29-2],< 10
2,O=C(c1ccc2c(c1)OCCN2c1ccn2c(=O)[nH]nc2c1)N1CCC(F)(F)CC1 [Example 1-148],< 10
3,CCn1nc2cc(N3CCCc4cc(C(=O)N5CCCC[C@H]5C)cnc43)ccn2c1=O [Example 8-157],10 to 100
4,CCn1nc2cc(N3CCCc4cc(C(=O)N5CCCCC5)cnc43)ccn2c1=O [Example 1-54],< 10
5,Cn1nc2cc(N3CCCc4cc(C(=O)N5CCOCC5)cnc43)ccn2c1=O [Example 8-126],10 to 100
6,O=C(c1cnc2c(c1)OCCN2c1ccc2c(=O)[nH]ncc2c1)N1CCCCC1 [Example 14-8],< 10
7,O=C(O)c1ccc(N2CCOc3cc(C(=O)N4CCC(F)(F)CC4)cnc32)cc1 [Example 4-5],< 10
8,C[C@H]1COc2cc(C(=O)N3CCCCC3)ccc2N(c2ccn3c(=O)n(C)nc3c2)C1 [Example 1-95],< 10
9,CN1Cc2cc(N3CCOc4cc(C(=O)N5CCC[C@H](F)C5)cnc43)ccc2C1=O [Example 8-200],< 10
10,O=C(c1cnc2c(c1)CCCN2c1ccc2c(=O)[nH]ccc2c1)N1CCCCC1 [Example 1-173],< 10
11,Cn1nc2cc(N3CCc4cc(C(=O)N5CCCCC5)ccc43)ccn2c1=O [Example 1-141],< 10
12,CN1Cc2cc(N3CCOc4cc(C(=O)N5CCC[C@@H](C(F)F)C5)cnc43)ccc2C1=O [Example 8-205],< 10
13,Cn1nnnc1-c1ccc(N2CCOc3cc(C(=O)N4CCCCC4)cnc32)cc1 [Example 1-251],< 10
14,"Cn1nc2cc(N3CCOc4cc(C(=O)N5CCCC6CC65)cnc43)ccn2c1=O (single isomer, unassigned) [23-1 Isomer A, 7-(7-(2-Azabicyclo[4,1,0]heptane-2-carbonyl)-2,3-dihydro-4H-pyrido[3,2-b][1,4]oxazin-4-yl)-2-methyl-[1,2,4]triazolo[4,3-a]pyridin-3(2H)-one]",< 10
15,"O=C(O)c1ccc(N2CCOc3c2ccc(C(=O)N2CCCCC2)c3C2CC2)cc1 [Example 9-1, 4-(8-Cyclopropyl-7-(piperidine-1-carbonyl)-2,3-dihydro-4H-benzo[b][1,4]oxazin-4-yl)benzoic Acid]",< 10
16,NC(=O)c1ccc(N2CCCc3cc(C(=O)N4CCCCC4)cnc32)cc1 [Example 6-14],< 10
17,CCN1Cc2cc(N3CCCc4cc(C(=O)N5CCC[C@H](C(F)(F)F)C5)cnc43)ccc2C1=O [Example 8-88],< 10
18,O=C(c1cnc2c(c1)CCCN2c1ccn2c(=O)n(CC3COC3)nc2c1)N1CCCCC1 [Example 1-58],< 10
19,CCN1Cc2cc(N3CCCc4cc(C(=O)N5CCC[C@H](C(F)F)C5)cnc43)ccc2C1=O [Example 8-94],< 10
20,O=C(c1cnc2c(c1)OCCN2c1ccn2c(=O)n(-c3ccccn3)nc2c1)N1CCCCC1 [Example 1-35],< 10
21,Cn1nc2cc(N3CCOc4cc(C(=O)N5CCCC(C(F)(F)F)C5)cnc43)ccn2c1=O (stereo not shown) [Example 8-109],< 10
22,C[C@H]1CCCCN1C(=O)c1cnc2c(c1)OCCN2c1ccc2c(c1)CN(C)C2=O [Example 8-196],< 10
23,O=C(O)c1ccc(N2CCCS(=O)(=O)c3cc(C(=O)N4CCCCC4)ccc32)cc1 [Example 2-20],> 100
24,O=C(c1cnc2c(c1)OCCN2c1ccc(C(F)(F)F)cc1)N1CCCCC1 [Example 1-242],10 to 100

row,Structure (SMILES),IC50 [nM]
1,Cn1nc2cc(N3CCCc4cc(C(=O)N5CCC[C@@H](CF)C5)cnc43)ccn2c1=O [Example 1-119],< 10
2,COCCn1nc2cc(N3CCOc4cc(C(=O)N5CCC(F)(F)CC5)cnc43)ccn2c1=O [Example 1-47],< 10
3,Cn1nc2cc(N3CCOc4cc(C(=O)N5C[C@H]6C[C@@H](C5)C6)cnc43)ccn2c1=O [Example 8-40],< 10
4,Cn1nc2cc(N3CCOc4cc(C(=O)N5C[C@H](O)C[C@H](O)C5)cnc43)ccn2c1=O [Example 8-108],10 to 100
5,CCn1nc2cc(N3CCCc4cc(C(=O)N5CCC[C@@H](C)C5)cnc43)ccn2c1=O [Example 8-159],< 10
6,Cn1nc2cc(N3CCCc4cc(C(=O)N5CCCCC5)ccc43)ccn2c1=O [Example 1-130],< 10
7,O=C(O)c1ccc(N2CCCCOc3cc(C(=O)N4CCCCC4)cnc32)cc1 [Example 2-9],< 10
8,COCCn1nc2cc(N3CCCc4cc(C(=O)N5CCCCC5)cnc43)ccn2c1=O [Example 1-55],< 10
9,CN1Cc2cc(N3CCOc4cc(C(=O)N5CCC[C@H](C(F)(F)F)C5)cnc43)ccc2C1=O [Example 8-208],< 10
10,CNC(=O)c1cn(C)c2cc(N3CCOc4cc(C(=O)N5CCCCC5)cnc43)ccc12 [Example 6-10],> 100
11,C[C@@H]1CCCN(C(=O)c2cnc3c(c2)OCCN3c2ccn3c(=O)n(C)nc3c2)C1 [Example 8-31],< 10
12,COC(=O)c1cc2sc(N3CCOc4cc(C(=O)N5CCCCC5)cnc43)cc2s1 [Example 1-24],< 10
13,Cc1cc(C(=O)O)ccc1N1CCOc2cc(C(=O)N3CCCCC3)cnc21 [Example 4-18],10 to 100
14,O=C(c1cnc2c(c1)CCCN2c1ccc2c(c1)CN(C1COC1)C2=O)N1CCCCC1 [Example 1-66],< 10
15,CS(=O)(=O)c1ccc(N2CCOc3cc(C(=O)N4CCCCC4)cnc32)cc1Cl [Example 1-254],10 to 100
16,CN(C)C(=O)c1ccc(N2CCOc3cc(C(=O)N4CCCCC4)cnc32)cc1 [Example 6-19],< 10
17,COCn1nc2cc(N3CCCc4cc(C(=O)N5CCC(F)(F)C(C)C5)cnc43)ccn2c1=O (stereo not shown) [Example 8-117],< 10
18,Cn1nc2cc(N3CCOc4cc(C(=O)N5CCCCC5(C)C)cnc43)ccn2c1=O [Example 8-172],> 100
19,CNC(=O)c1ccc(N2CCOc3cc(C(=O)N4CCCCC4)cnc32)cn1 [Example 6-22],< 10
20,COCCN1Cc2cc(N3CCCc4cc(C(=O)N5CCCCC5)cnc43)ccc2C1=O [Example 1-64],< 10
21,CN1C(=O)C(C)(C)c2cc(N3CCOc4cc(C(=O)N5CCCCC5)cnc43)ccc21 [Example 1-249],> 100
22,CC(C)(NS(C)(=O)=O)c1ccc(N2CCOc3cc(C(=O)N4CCCCC4)cnc32)cc1 [Example 31-2],> 100
